This is an account of results in patent publication US7838685B2 (priority 2005, dated 2010).

Each structure is given as a SMILES string. Values joined by “and” are separate entries in the source; they are usually repeats but may differ in a detail not shown here. Identical values can stand only once.

A short description of data set [1]: Phase transition temperature by differential scanning calorimeter. In kind it is physicochemical. The note with it: for Tc, temperature of the gel to liquid-crystalline phase transition: dispersed in pure water, lipid concentration 1 wt %, DSC 2° C./min, 20 to 80° C.; for Transition temperature: comparison of cationic vesicles, hydrated at 10 mg/mL, extruded through 0.22 μm filter. On the procedure: Each of the obtained cationic amino acid type lipids was dispersed in a simple medium of pure water at 60° C. and used as a measurement sample. 60 μL of a sample solution (lipid concentration: 1 wt %) was encapsulated in a silver pan (sealable type), and the phase transition temperature Tc was measured by a differential scanning calorimeter with the temperature elevation rate of 2° C./min. and the measurement temperature of 20 to 80° C.
(§1) Lys-Asp2C16 (5) was hydrated at a lipid concentration of 10 mg/mL and transmitted through a membrane filter having a final pore diameter of 0.22 μm by the extrusion method. Then, the phase transition temperature and the particle size of the assembly were measured. The particle size of the molecular assembly of Lys-Asp2C16 (5) measured by the dynamic light scattering method was 374±178 nm, and the phase transition temperature thereof was 30° C.
Background: DSC measures the heat that a sample takes up or gives off during a temperature scan.

The subject of data set [2] is human fibroblasts CCD-32SK. Description: Cytotoxicity test, cell survival rate by WST assay, CCD-32SK. In kind it is cell-based. The note with it: 24 h, 10 μg/dish. On the procedure: (§2) The cationic amino acid type lipid (2) was evaluated in terms of cytotoxicity by adding different amounts thereof to cells. Specifically, 1×10^4 simian kidney-derived cells COS-7 or human fibroblasts CCD-32SK were planted to dishes and cultured for 24 hours in an incubator. To the cultured cells, a cationic liposome diluted with a medium was added so as to be 0.1, 1, 5, and 10 μg/dish. The cells were cultured for another 24 hours. Then, the cells were washed with a medium, and the cell survival rate was calculated by the WST assay. Based on the results, the cytotoxicity was evaluated (n=2). For comparison, the same test was performed using lipofectamine, which is currently in general use as a gene introduction drag. In the figure, (a) represents the results with COS-7, and (b) represents the results with CCD-32SK. Where 10 μg of lipofectamine was added to COS-7, the cell survival rate 24 hours later was 20%.

The test system of data set [3] is simian kidney-derived cells COS-7. Description: Cytotoxicity test, cell survival rate by WST assay, COS-7. In kind it is cell-based. The note with it: COS-7, 10 μg added, 24 hours later. On the procedure:
as §2

Data set [4] is described as follows: Zeta potential of the molecular assembly including a single type of cationic amino acid type lipid. In kind it is physicochemical. The note with it: molecular assembly 1 mg/mL, extrusion method, 30 mM phosphoric buffer solution pH7.4. On the procedure:
The zeta potential of a molecular assembly (1 mg/mL) including a single type of cationic amino acid type lipid (2), (3) or (4) prepared by the extrusion method was measured by a zeta potentiometer (Nano-ZS, Malvern) with 30 mM of a phosphoric buffer solution at pH7.4. The zeta potential of each molecular assembly was +37 mV with the cationic amino acid type lipid (2), +45 mV with the cationic amino acid type lipid (3), and lower at +18 mV with the cationic amino acid type lipid (4). From such zeta potentials, it has been clarified that the surface of a molecular assembly formed of a cationic amino acid type lipid is charged positive under physiological conditions.

A short description of data set [5]: Particle size of the molecular assembly by dynamic light scattering method. It counts as physicochemical. The note with it: hydrate extruded through 0.22 μm membrane filter. On the procedure:
(§3) 10 mg of the cationic amino acid type lipid (2), (3) or (4) was hydrated in 2 mL of pure water and stirred at room temperature for 6 hours. Then, the resultant hydrate was transmitted with pressure through a membrane filter (final pore diameter: 0.22 μm) (extrusion method). […] After the transmission, the resultant substance was subjected to ultracentrifugation (33,000 rpm, 30 min.) and re-dispersed in pure water to obtain a molecular assembly including a respective cationic amino acid type lipid.
A hydrate dispersion solution of the cationic amino acid type lipid (2) was extruded and observed with an electron microscope. The particle size of the vesicles was approximately the same as the particle size thereof measured by a dynamic light scattering method (181±83 nm).
as §1

Data set [6] can be described thus: Observation of the molecular assembly with transmission electron microscope. The conditions noted are these: for Form of molecular assembly observed with electron microscope: hydrate dispersion extruded. In kind it is physicochemical. On the procedure:
as §3
The thickness of the ribbon is considered to be about 5 nm, which is approximately the same as the thickness of the bilayer.

With `CCCCCCCCCCCCCCCCOC(=O)CCC(N)C(=O)OCCCCCCCCCCCCCCCC` (centres unmarked) [Compound 1], in data set [1], the “Tc, temperature of the gel to liquid-crystalline phase transition” value (from here on “Tc, temperature of the gel”) stood at 49.4 °C.
`CCCCCCCCCCCCCCCCOC(=O)CCC(NC(=O)C(N)CCCCN)C(=O)OCCCCCCCCCCCCCCCC` (centres unmarked) [Compound 2] had a Transition temperature in data set [1] of 41.2 °C. Also, the “Tc, temperature of the gel” value in data set [1] was 41.2 °C. Besides, the Cell survival rate result in data set [2] is given as “about 80%”; in data set [3] it was “not decreased at all”. For the same compound, in data set [4], the ξ potential result is “+37 mV”. Moreover, in data set [5], the “Particle size (dynamic light scattering method)” value (“Particle size” for short) is 181±83 nm and 188 ± 82 nm.
Consider `CCCCCCCCCCCCCCCCOC(=O)CCC(NC(=O)C(N)Cc1c[nH]cn1)C(=O)OCCCCCCCCCCCCCCCC` (centres unmarked) [Compound 3], for which, in data set [1], the “Tc, temperature of the gel” value came out at 43.7 °C. In addition, in data set [6] (electron microscope), the “Diameter of tubular molecular assembly” value was “about 20 nm” and the “Wall thickness of the tube” value is given as “about 5 nm”. Besides, in data set [6] (TEM), the “Form of molecular assembly observed with electron microscope” value (“Form of molecular assembly observed” below) is “tubular molecular assembly”. In addition, the ξ potential entry in data set [4] is on record as “+45 mV”. For the same compound, in data set [5], the “Particle size” value was determined as 241±96 nm.
As to `CCCCCCCCCCCCCCCCOC(=O)CCC(NC(=O)C(N)CCCNC(=N)N)C(=O)OCCCCCCCCCCCCCCCC` (centres unmarked) [Compound 4], the “Tc, temperature of the gel” value in data set [1] was found to be 44.8 °C. The “Form of molecular assembly observed” value in data set [6] (TEM) was “monolayer vesicle structures”. The ξ potential entry in data set [4] is on record as “+18 mV”. The “Particle size” value in data set [5] was determined as 1647±733 nm.
In turn, `CCCCCCCCCCCCCCCCOC(=O)CC(NC(=O)C(N)CCCCN)C(=O)OCCCCCCCCCCCCCCCC` (centres unmarked) [Compound 5, Lys-Asp2C16, reference compound] gave a Transition temperature in data set [1] of 30.0 °C. The Transition temperature in data set [1] (listed as Lys-Asp2C16 (5)) worked out at 30 °C. Moreover, in data set [6] (TEM), the “Length of the ribbon” value was at least 1 μm, the “Thickness of the ribbon” value was “about 5 nm”, the “Width of the ribbon” value is recorded as “about 100 nm” and the “Form of molecular assembly observed” value is listed as “ribbon-like molecular assembly”. Moreover, the “Stability of the form of the molecular assembly” value in data set [6] (after transmission through 0.22 μm membrane filter) is reported as “unstable in the form”. Moreover, in data set [5], the “Particle size” value amounted to 374 ± 178 nm. Moreover, in data set [5] (listed as Lys-Asp2C16 (5)), the “Particle size” value stood at 374±178 nm.
